Test results: US20050255097A1, “Modified venom and venom components as anti-retroviral agents” (priority 2004, published 2005)

Columns and labels:
[1] = tested on: T cells from peripheral blood; conditions: Mizuno, et al., 1982; cited from earlier work
[2] = tested on: herpesvirus; assay: Antiviral activity against herpes virus; assay type: cell-based
[3] = assay type: cell-based; conditions: virus not specified
[4] = tested on: mice; assay type: in vivo
Source text: Administration of a highly toxic substance such as cobratoxin for therapeutic purposes is fraught with obvious difficulties, even when highly diluted. As a diluted substance, its potential effectiveness is reduced, and due to its high affinity for the nAchR, continued use could result in accumulation of the toxin at neuromuscular junctions and the diaphragm with the potential for adverse events. Alpha cobratoxin, of the Thailand cobra, Naja naja kaouthia, is a homogeneous non-glycosylated polypeptide composed of 71 amino acids with a molecular weight of 7821d and a pI of 9.6. Detoxification of alpha-cobratoxin can be achieved by exposure to heat, formamide, hydrogen peroxide, perchloric acid, ozone or other oxidizing agents. The result of exposure of cobratoxin to oxidizing agents is modification of amino acid side chains as well as the lysis of one or more disulfide bonds. […] The procedures used for detoxification described here are based upon the work of Sanders, who preferred the use of hydrogen peroxide (Sanders, et al., 1975). Loss of toxicity by oxidized alpha-neurotoxins (MCTX), as cobratoxin, can be determined by the intraperitoneal (IP) injection of excess levels of the modified protein into mice. […]
The endpoint of the above reactions are most easily determined by assessing the toxicity of the preparation in mice. […]

[5] = pI and pH of protein solutions; assay type: physicochemical
[6] = tested on: Semliki Forest virus; assay: Antiviral activity against Semliki Forest virus (plaque assay); assay type: cell-based
Source text: Alternatively, an enzyme linked immunosorbant assay (ELISA) can evaluate loss of toxicity, as well as potential potency in terms of continued ability to bind to the nAchR. […] This enables a measurement of the depression in binding of the modified neurotoxin to nAchR, indicative of loss of toxicity, while simultaneously indicating a continued ability of the modified toxin to bind to the nAchR providing a measure of potency (Raymond; unpublished data). To test the effectiveness, or potency of detoxified venom, Sanders utilized a plaque assay with Semliki Forest virus (Miller, et al., 1977).

Row | Compound | decrease of E-rosette formation [1] | antiviral activity against herpes [2] | antiviral activity [3] | LD50 in mice ([4]; injected subcutaneously or intraperitoneally, death observable within hours) [µg] | time to death ([4]; injection of 1.5 mcg, 25 g mouse) [min] | pH of solution [5] | pI [5] | antiviral activity against Semliki Forest virus [6]
1 | C[N+](C)(C)CCOC(N)=O.[Cl-] [carbamylcholine chloride] | 30%-40% |  |  |  |  |  |  | 
2 | alpha-cobratoxin: native non-glycosylated polypeptide of 71 amino acids from the Thailand cobra, Naja naja kaouthia |  | does not have any antiviral activity | does not demonstrate antiviral activity | 1.2 | ≤ 25 | 8.5 | 9.6 | does not have any antiviral activity
